In publication PMC12677843, “Multidisciplinary Preclinical Investigations on Ferrocenyl, Ruthenocenyl, and Benzyl Derivatives of Niridazole as New Drug Candidates against Schistosomiasis” (Chemmedchem, 2025):

Tests used:
[1] = test system: SH-SY5Y neuroblastoma cells; assay: XTT mitochondrial activity/cell viability assay, SH-SY5Y; assay type: cell-based; settings: 20 µM, 24 h, serum-free media, vs DMSO control (0.2%), mean
Experimental: The safety profile of niridazole and its organometallic derivatives was evaluated using two different cell lines. The XTT mitochondrial activity assay reflecting cell viability was performed in the hepatocyte‐derived carcinoma cell line HUH7 and in the human neuroblastoma cell line SH‐SY5Y at 20 µM for 24 h. The SYTOX cell viability assay was subsequently performed on the SH‐SY5Y cell line, once the cell line was identified to be more sensitive to the treatment conditions.
Figure 5 XTT assay. Results of the XTT activity/viability assay are shown in A for HUH7 and B for SHSY5Y cells. […]
Additionally, 2 wells with negative controls containing only DMSO and the culture medium were included. After an incubation period of 72 h at 37 °C and 5 % CO 2, the worms were microscopically evaluated. The drug effect was determined 24, 48 and 72 h post-exposure based on the phenotype of the adult worms, using a viability scale ranging from three referring to viable, motile worms with no change in their tegument to zero standing for the death of the worms. […]
Following 24 h of incubation, 12.5 μL of an XTT/phenazine methosulfate (PMS) (XTT Sigma Aldrich cat X4626, PMS Serva CAT: 3203) 0.02solution (1 mg/mL XTT and 7.5 μg/mL PMS) was added to each well. […] Mean ± SD was determined from three independent experiments, each performed in quintuplicate. […]

[2] = test system: S. mansoni newly transformed schistosomula (NTS); assay: In vitro evaluation on newly transformed schistosomula (NTS); assay type: cell-based, Schistosoma mansoni
Experimental: 2. Experimental section for biological experiments
Stock solutions of the test compounds
Stock solution of a concentration of 10 mM in pure DMSO (Sigma-Aldrich, Switzerland) were prepared of the 12 compounds, these stock solutions were used for all in vitro evaluations from activity tests in S. mansoni to the cytotoxic determinations in HUH7 hepatocyte-derived carcinoma cells, and in SH-SY5Y neuroblastoma cells.
The solutions were thoroughly vortexed and sonicated to enable a good dissolution of the compounds and homogenous stock solutions.
2.1 In vitro evaluations in S. mansoni
In vitro evaluation on newly transformed schistosomula (NTS)
To obtain newly transformed schistosomula (NTS) the lifecycle of S. mansoni (strain originates from West Africa, Liberia) is maintained at the Swiss Tropical and Public Health Institute (Swiss TPH). As previously described, cercariae are collected from infected Biomphalaria glabrata snails and then mechanically transformed into NTS. 8 After HBSS (Gibco, Waltham MA, USA) washing to get rid of the detached tails, the NTS were kept overnight (min. 12 h, max. 24 h) in culture medium at 37 °C and 5 % CO2 to complete their transformation process, before the drug sensitivity assay was started. The drug assays were performed in the same culture medium consisting of medium M199 (Gibco, Waltham MA, USA) supplemented with 5 % v/v inactivated fetal calf serum (iFCS; Bioconcept AG, Allschwil, Switzerland), 1% antibiotics mixture developed by Mäser et al., 9 and 1 % penicillin 10,000 U/mL, and streptomycin 10 mg/mL solution (Sigma-Aldrich, Buchs, Switzerland). The assay was performed in a 96-well plate, with 30−40 NTS per well in a final volume of 250 μL. NTS incubated in culture medium containing 0.5 % DMSO but no drug served as negative controls.
Microscopic evaluation was performed after 24, 48 and 72 h of incubation of the parasites at 37 °C and 5 % CO 2. Their overall viability was scored from 0 (death) to 3 (full viability) by a phenotypic screening method based on their motility, morphology, […]
and granularity. […]

SMILES: O=C1NCCN1c1ncc([N+](=O)[O-])s1 [Niridazole, niridazole]
- reduction of XTT signal in SH-SY5Y cells [1]: no signs of toxicity
- EC50 ([2]; Schistosoma mansoni, 72 h incubation, 37 °C, 5% CO2): > 50 µM
- drug effect at 50 µM on S. mansoni NTS ([2]; highest tested concentration 50 µM): not impaired
